Laboratory results published in the supplement of paper PMC10307832.

Experiments:
Experiment in all cases: relative viability (nuclei count vs DMSO), 5 days (fraction); higher = more cells survive
[1] = compound: O=C(Nc1cccc(C(F)(F)F)c1)Nc1cc(S(=O)(=O)NC2CC2)ccc1-c1ccsc1 [AGI-6780] + CCNC(=O)c1noc(-c2cc(C(C)C)c(O)cc2O)c1-c1ccc(CN2CCOCC2)cc1 [Luminespib] (partner 0.01 µM)
Procedure, shortened: (§1)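 Lung cancer cell lines in 1536-well plates got either a single drug or a fixed anchor-drug dose together with five library-drug doses (not always all listed) in √10 steps, by pin tool, on the day after seeding. Nuclei were counted after 5 days, and relative viability is the treated-to-vehicle ratio of nuclei counts. Values are medians of duplicate plates.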

[2] = compound: O=C(Nc1cccc(C(F)(F)F)c1)Nc1cc(S(=O)(=O)NC2CC2)ccc1-c1ccsc1 [AGI-6780] + CC1(C)CCC(c2ccc(Cl)cc2)=C(CN2CCN(c3ccc(C(=O)NS(=O)(=O)c4ccc(N[C@H](CCN5CCOCC5)CSc5ccccc5)c(S(=O)(=O)C(F)(F)F)c4)cc3)CC2)C1 [Navitoclax] (partner 0.5 µM)
Procedure, shortened: as §1

[3] = compound: O=C(Nc1cccc(C(F)(F)F)c1)Nc1cc(S(=O)(=O)NC2CC2)ccc1-c1ccsc1 [AGI-6780] + CC(C)C[C@H](NC(=O)[C@H](Cc1ccccc1)NC(=O)c1cnccn1)B(O)O [Bortezomib] (partner 0.002 µM)
Procedure, shortened: as §1

[4] = compound: O=C(Nc1cccc(C(F)(F)F)c1)Nc1cc(S(=O)(=O)NC2CC2)ccc1-c1ccsc1 [AGI-6780] + Cc1nc(Nc2ncc(C(=O)Nc3c(C)cccc3Cl)s2)cc(N2CCN(CCO)CC2)n1 [Dasatinib] (partner 0.075 µM)
Procedure, shortened: as §1

| Cell Line | relative viability ([1]; first compound 0.08 µM) | relative viability ([1]; first compound 0.253 µM) | relative viability ([1]; first compound 0.8 µM) | relative viability ([1]; first compound 2.53 µM) | relative viability ([1]; first compound 8 µM) | relative viability ([2]; first compound 0.08 µM) | relative viability ([2]; first compound 0.253 µM) | relative viability ([2]; first compound 0.8 µM) | relative viability ([2]; first compound 2.53 µM) | relative viability ([2]; first compound 8 µM) | relative viability ([3]; first compound 0.08 µM) | relative viability ([3]; first compound 0.253 µM) | relative viability ([3]; first compound 0.8 µM) | relative viability ([3]; first compound 2.53 µM) | relative viability ([3]; first compound 8 µM) | relative viability ([4]; first compound 0.08 µM) | relative viability ([4]; first compound 0.253 µM) | relative viability ([4]; first compound 0.8 µM) | relative viability ([4]; first compound 2.53 µM) | relative viability ([4]; first compound 8 µM) |
| --- | --- | --- | --- | --- | --- | --- | --- | --- | --- | --- | --- | --- | --- | --- | --- | --- | --- | --- | --- | --- |
| RERF-LC-KJ | 1.25 | 1.17 | 1.33 | 1.16 | 1.17 | 1.18 | 1.08 | 1.16 | 0.834 | 0.911 | 1.06 | 1.16 | 1.15 | 0.798 | 1.09 | 0.895 | 0.93 | 0.822 | 0.511 | 0.667 |
| SK-LU-1 | 0.22 | 0.192 | – | 0.199 | 0.224 | 0.904 | 0.961 | 0.418 | 0.851 | 0.955 | 1.25 | 1.45 | 0.965 | 1.12 | 1.4 | 0.172 | 0.183 | – | 0.135 | 0.17 |
| SW 1573 | 0.462 | 0.398 | 0.216 | 0.216 | 0.287 | 1.21 | 1.07 | 1.14 | 0.973 | 1.14 | 1.01 | 1.1 | 0.915 | 0.69 | 0.879 | 0.467 | 0.516 | 0.442 | – | 0.531 |
| UMC-11 | 1.16 | 1 | 1.22 | – | 1.11 | 0.318 | 0.372 | 0.348 | – | 0.399 | 0.671 | 0.712 | 1.06 | – | 1.04 | 0.474 | 0.524 | 0.662 | – | 0.488 |
